Experimental findings from US9902725B2, “Heterocyclic derivatives as RORgamma modulators” (GENFIT, priority 2014, dated 2018) are described below.

For test [1], the target named is T1, human RORγt (Homo sapiens, UniProt P51449).
T1 sequence (P51449 1-497 isoform P51449-2): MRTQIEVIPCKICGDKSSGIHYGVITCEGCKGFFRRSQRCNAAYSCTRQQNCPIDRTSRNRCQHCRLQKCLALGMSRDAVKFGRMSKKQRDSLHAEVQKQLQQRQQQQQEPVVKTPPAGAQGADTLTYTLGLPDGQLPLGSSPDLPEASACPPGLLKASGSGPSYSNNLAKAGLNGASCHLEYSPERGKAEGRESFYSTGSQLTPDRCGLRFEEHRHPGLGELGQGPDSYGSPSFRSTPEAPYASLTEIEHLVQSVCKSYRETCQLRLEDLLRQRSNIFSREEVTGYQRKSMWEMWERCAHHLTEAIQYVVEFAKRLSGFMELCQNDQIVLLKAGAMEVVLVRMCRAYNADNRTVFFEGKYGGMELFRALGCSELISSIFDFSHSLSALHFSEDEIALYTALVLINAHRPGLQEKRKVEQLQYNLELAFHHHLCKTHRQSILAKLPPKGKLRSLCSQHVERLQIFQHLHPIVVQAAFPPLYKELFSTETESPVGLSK
Kind of test: RORE luciferase/RORγt transactivation assay. As to conditions: COS-7 cells transfected with IL-17 promoter luciferase reporter and RORγt plasmid, 20 h. Type of test: cell-based. The arrangement: expressed in transfected cells. From the text: It is well known that RORγ binds to a conserved non-coding sequence (CNS) enhancer element in the IL-17 promoter. Accordingly, we have used in this assay a luciferase reporter gene construct that contains the human IL-17 promoter fragment with RORγ-specific CNS enhancer element and a RORγt overexpressing plasmid, to indirectly assess the effect of compounds on RORγ activity. Inhibition of RORγ activity by test compounds will result in a decrease in luciferase activity in COS-7 cells transfected with the reporter construct.
Monkey Kidney COS-7 cell line are maintained in a standard culture medium Dulbecco's modified Eagle's minimal (DMEM) medium supplemented with 10% fetal calf serum, 1% sodium pyruvate, 1% essential amino acids and 1% antibiotics at 37° C. in a humidified atmosphere of 5% CO2 and 95% air. Culture medium was changed every 2 days.
The 4.3 Kb human IL-17 promoter containing the RORγ-specific CNS enhancer element was PCR amplified from human genomic DNA and cloned into a pGL3-TKLuc2Cp reporter plasmid. To overexpress RORγt, the full-length cDNA of human RORγt (identical to published sequence NM 001001523) was cloned without any restriction into pcdna3.1DV5-His-topo to generate the RORγt overexpression plasmid “RORγt_FL_h_pcDNA3.1DV5-His-TOPO_1”.
The luciferase reporter plasmid and the RORγt overexpression plasmid were transfected into COS-7 cell line using 4 μLJetPEITM/μg of DNA. Briefly, 150 ng of DNA (ration ½ between RORE-Tk Luc2Cp and cDNA RORγt or the empty vector for the negative control) was served to transfect adherent COS-7 cells in a […] culture flask, in complete medium (see cos-7 cell line culture). Cells were incubated for 24 hours in a humidified atmosphere of 5% CO2 and 95% air
Cells were then detached (using trypsin) and washed by centrifugation at 300 g for 10 minutes. Cell pellet was resuspended in serum free/phenol red free DMEM and seeded in 384 well plates at a density of 10000 cells/well and then incubated for 4 h at 37° C.
Compounds were dissolved in 100% DMSO to obtain 10 mM stock solutions. For each compound, test concentrations were diluted in serum free/phenol red free DMEM using the Genesis Freedom 200™ (TECAN) and added to the cells to obtain a 0.3% DMSO final concentration (in a final volume of 40 μL per well). T091317 was used as reference compound. Cells were incubated in presence of compounds for an additional 20 h at 37° C. in a humidified atmosphere of 5% CO2 and 95% air
The luciferase activity was then measured with 40 μL/well steady-Glo Luciferase assay system (Promega, Madison, Wis.) and after incubation at room temperature for 30 minutes. The luminescence was estimated using the Ultra384 reader (TECAN). Data were collected and analyzed using GraphPad Prism software (GraphPad Software V5.02, San Diego Calif. USA). IC50 in μM and Emax in % were reported for each compound.
Background: A reporter such as luciferase makes a cellular process visible.

Test [2] has as its system MOG-induced EAE mice. Put plainly: MOG-induced EAE in mice, clinical score. Type of test: in vivo. Here is the method:
8-10 week old, male C57BL/6 mice were purchased from Janvier Lab (St Berthevin, France) and housed in a specific pathogen free (SPF) animal facility for one week before the start of the studies. Peptide antigen MOG35-55 (Myelin Oligodendrocyte Glycoprotein) ([…], SEQ ID NO:1, Polypeptide group, France) was dissolved in PBS and emulsified with an equal volume of Complete Freund's Adjuvant (CFA) containing 5 mg/mL of mycobacteria and administrated by subcutaneous injection at the dorsal flanks on day 0 at 200 μg/mouse. To ensure induction of reliable EAE, 200 ng of Bordetella pertussis toxin (Sigma) was given via intraperitoneal injection at day 0 and 2 (Cua, Sherlock et al. 2003; Zhang, Gran et al. 2003). Animals were treated with drug beginning 2 days before peptide injection. Animals were randomized into groups for treatment by weight, so that the average weight of each group was similar. The groups were segregated by cage. Compounds according to the invention were suspended in Carboxymethyl Cellulose (CMC) 1% (Sigma) and Tween80 0.1% (Sigma) by sonication and animals were dosed daily by gavage with 10 mL/kg body weight. The daily dose of Cpd. 1 was 30 mg/kg and vidofludimus (reference compound) at 60 mg/kg in protocol 1 to assess IL-17 A and IL-17F secretion from splenocytes ex vivo. In protocol 2, mice were treated with Cpd. 1 at 3 and 10 mg/Kg or T4 compound at 1 and 10 mg/kg daily by gavage to assess the clinical score. Clinical assessment of EAE was performed daily according to the following criteria: 0) no disease, 1) limp tail, 2) weak/partially paralyzed hind legs, 3) completely paralyzed hind legs, 4) complete hind and partial front leg paralysis, and 5) complete paralysis/death. For Cytokine quantifications, mice were euthanized 20 days after EAE induction. Spleen-isolated cells were collected and adjusted to 2×10^6 cells/mL. Cells were cultured in complete RPMI medium (RPMI supplemented with 10% of fetal calf serum, 1% glutamine, and 1% penicillin/streptomycin). Spleen cells were stimulated with MOG (20 μg/mL) (Polypeptide group, France). Cytokine levels were evaluated 48 h later by ELISA (R&D Systems Europe) or HTRF (CisBio, France) in culture supernatants using IL-17A and IL-17-F according to the manufacturer's protocols. The statistical significance was based on Student's t test (p<0.05, unpaired test).

Each structure is given as a SMILES string.

With `O=C(O)CCc1c[nH]c2ccc(CC(=O)NC(c3ccccc3)c3ccccc3N3CCCCC3)cc12` (stereo not drawn) [Cpd. 1, 3-{5-[({phenyl[2-(piperidin-1-yl)phenyl]methyl}carbamoyl)methyl]-1H-indol-3-yl}propanoic acid], the IC50 (in general, the concentration at which inhibition is half-maximal) in test [1] is less than 1000 nM. In addition, the “onset of EAE” value in test [2] (administered p/os (orally) for 20 days) is listed as “able to delay the onset of EAE”. Moreover, the EAE clinical score result in test [2] (daily by gavage, Cpd. 1 at 3 and 10 mg/Kg, T4 compound at 1 and 10 mg/kg) was “improvement was apparent”.
In test [1], `O=C(O)CCc1c[nH]c2ccc(CC(=O)NC(c3cccc(F)c3)c3ccccc3N3CCCCC3)cc12` (stereo not drawn) [Cpd. 3, 3-[5-({[(3-fluorophenyl)[2-(piperidin-1-yl)phenyl]methyl]carbamoyl}methyl)-1H-indol-3-yl]propanoic acid] returned a 50% inhibitory concentration (IC50) of less than 1000 nM.
Regarding `Cc1ccc(C(NC(=O)Cc2ccc3[nH]cc(CCC(=O)O)c3c2)c2ccccc2)c(N2CCCC2)c1` (stereo not drawn) [Cpd. 5, 3-{5-[({[4-methyl-2-(pyrrolidin-1-yl)phenyl](phenyl)methyl}carbamoyl)methyl]-1H-indol-3-yl}propanoic acid], in test [1], the concentration for half-maximal inhibition (IC50) is less than 1000 nM.
With `CC(C)CC(NC(=O)Cc1ccc2[nH]cc(CCC(=O)O)c2c1)c1ccccc1N1CCCCC1` (stereo not drawn) [Cpd. 29, 3-{5-[({3-methyl-1-[2-(piperidin-1-yl)phenyl]butyl}carbamoyl)methyl]-1H-indol-3-yl}propanoic acid], in test [1], the IC50 was less than 1000 nM.
